Tests used:
Assay type in all cases: in vivo, Durum wheat
Durum line UT12 = assay: Greenhouse Trial: plant injury rating, imazamox; conditions: 0-9 scale, 0 = no injury, 9 = plant death
Experimental: (§1) Fifteen Durum lines, each derived from a different M2 plant, and two wild type durum lines were evaluated for tolerance to the imidazolinone herbicide imazamox at rates of 100 and 160 g/ha in a greenhouse trial. Evaluations of tolerance were made at 14 and 21 days after treatment. Injury was scored on a 0-9 scale, with 0 representing no injury and 9 plant death.

Durum line UT20 = assay: Greenhouse Trial: plant injury rating, imazamox; conditions: 0-9 scale, 0 = no injury, 9 = plant death
Experimental: as §1

Durum line UTO7 = assay: Greenhouse Trial: plant injury rating, imazamox; conditions: 0-9 scale, 0 = no injury, 9 = plant death
Experimental: as §1

[1] = tested on: Fifteen Durum lines, each derived from a different M2 plant; assay: Greenhouse Trial: all fifteen mutagenesis-derived lines; conditions: 100 and 160 g/ha imazamox
Experimental: as §1
A rate of 35 g/ha imazamox is adequate to kill susceptible Durum wheat.

For `COCc1cnc(C2=NC(C)(C(C)C)C(=O)N2)c(C(=O)O)c1` (stereo not shown) [imazamox], the “Average plant injury rating” value (Durum line UT12; imazamox 100 g/ha, 14 DAT) was 4.8, the “Average plant injury rating” value (Durum line UT12; imazamox 100 g/ha, 21 DAT) was 2.1 and the “Average plant injury rating” value (Durum line UT12; imazamox 160 g/ha, 14 DAT) was 5.7. For the same compound, the “Average plant injury rating” value (Durum line UT12; imazamox 160 g/ha, 21 DAT) was 2.8, the “Average plant injury rating” value (Durum line UT20; imazamox 100 g/ha, 14 DAT) was 5.0 and the “Average plant injury rating” value (Durum line UT20; imazamox 100 g/ha, 21 DAT) was 2.1. The “Average plant injury rating” value (Durum line UT20; imazamox 160 g/ha, 14 DAT) was 5.3, the “Average plant injury rating” value (Durum line UT20; imazamox 160 g/ha, 21 DAT) was 2.5 and the “Average plant injury rating” value (Durum line UTO7; imazamox 100 g/ha, 14 DAT) was 3.7. For the same compound, the “Average plant injury rating” value (Durum line UTO7; imazamox 100 g/ha, 21 DAT) was 1.9, the “Average plant injury rating” value (Durum line UTO7; imazamox 160 g/ha, 14 DAT) was 4.4 and the “Average plant injury rating” value (Durum line UTO7; imazamox 160 g/ha, 21 DAT) was 2.5. The tolerance to imazamox [1] was “excellent tolerance”.

— US20160376605A1, “WHEAT PLANTS HAVING INCREASED TOLERANCE TO IMIDAZOLINONE HERBICIDES” (BASF SE, priority 2003, published 2016)
